Results published in ChEMBL document CHEMBL4177538, “Recent progress in prodrug design strategies based on generally applicable modifications” (Bioorg Med Chem Lett, 2017).

Legend:
[1] = Half life in phosphate buffered saline at pH 7.4 at 37 degC; format: physicochemical
[2] = system: glucuronidase; experiment: Half life in phosphate buffered saline at pH 7 in presence of glucuronidase at 37 degC; format: ADME

half-life [1] | Compound | half-life [2]
12 min | Cc1cccc(C)c1OCC(=O)N[C@@H](Cc1ccccc1)[C@H](OC(=O)CCC(=O)NCCN1CCCCC1)C(=O)N1CSC(C)(C)[C@H]1C(=O)NC(C)(C)C | –
– | CC[C@@]1(O)C(=O)OCc2c1cc1n(c2=O)Cc2cc3cc(OCc4ccc(O[C@@H]5O[C@H](C(=O)O)[C@@H](O)[C@H](O)[C@H]5O)c([N+](=O)[O-])c4)ccc3nc2-1 | 20 min
